IC50 data for 4 sequences are collected here from article PMC5354938, “Spleen cells from young but not old immunized mice eradicate large established cancers” (Clinical cancer research : an official journal of the …, 2012).

The target in test [1] is T1, H2-K^b (Mus musculus, UniProt P01901).
T1 construct: made in house
T1 sequence (P01901 22-369): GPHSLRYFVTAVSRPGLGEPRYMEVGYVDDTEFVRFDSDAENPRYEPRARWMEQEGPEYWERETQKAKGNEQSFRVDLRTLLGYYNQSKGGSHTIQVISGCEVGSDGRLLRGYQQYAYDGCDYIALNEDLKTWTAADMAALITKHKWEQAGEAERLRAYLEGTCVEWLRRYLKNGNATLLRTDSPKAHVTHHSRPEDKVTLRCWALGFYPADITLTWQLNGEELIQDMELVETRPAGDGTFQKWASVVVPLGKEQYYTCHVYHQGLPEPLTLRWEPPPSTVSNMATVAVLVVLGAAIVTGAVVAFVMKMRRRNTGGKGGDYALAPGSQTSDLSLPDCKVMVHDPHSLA
T1 sequence (P01887 21-119 partner): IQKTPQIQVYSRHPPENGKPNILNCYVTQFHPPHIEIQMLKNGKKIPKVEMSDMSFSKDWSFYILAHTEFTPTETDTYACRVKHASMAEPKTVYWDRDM
The experiment in a line: MHC peptide binding assay, purified H2-K^b. On the procedure: MHC purification, and quantitative assays to measure the binding affinity of peptides to purified H2-K^b, H2-D^b, and HLA-A*0201 molecules were performed as previously described ([49], [50]).

The next test concerns the target H2-D^b (Mus musculus, UniProt P01899). Conditions: MHC D^b; geometric mean of 5 or more experiments; Published in ref [19]; read-out: Affinity of peptide for MHC (IC50); cited from earlier work.
Test [2] concerns the target T1, H2-K^b. The following applies: MHC K^b; geometric mean of 5 or more experiments; Published in ref [19]; read-out: Affinity of peptide for MHC (IC50); cited from earlier work.
The mark [3] stands for this setting: Affinity of peptide for MHC (IC50), MHC K^b, purified H2-K^b, geometric mean of 5 or more experiments.

Where two headings read alike, the source gives them in different places. Ends that are not written are not given here.

Sequence of H2-D^b (P01899 whole entry, looked up): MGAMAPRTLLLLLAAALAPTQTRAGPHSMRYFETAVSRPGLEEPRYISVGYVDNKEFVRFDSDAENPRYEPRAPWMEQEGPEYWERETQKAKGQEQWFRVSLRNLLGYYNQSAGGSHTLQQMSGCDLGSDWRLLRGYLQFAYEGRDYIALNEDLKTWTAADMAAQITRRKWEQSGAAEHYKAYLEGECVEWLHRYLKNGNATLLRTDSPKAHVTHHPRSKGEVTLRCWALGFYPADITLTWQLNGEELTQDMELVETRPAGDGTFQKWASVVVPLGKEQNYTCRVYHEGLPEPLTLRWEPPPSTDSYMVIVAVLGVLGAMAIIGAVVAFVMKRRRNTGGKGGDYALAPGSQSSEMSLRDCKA

The term IC50 denotes the concentration needed to halve the response being measured. Sequence SNFVSAGI [p68 (547-554)] returned an IC50 at H2-K^b [1] (setting [3]) of 22 nM. Turning to IGMFNLTFI [A23R (297-305)], on H2-D^b, the IC50 was 0.34 nM.

YTLIYRQL [A6L (265-272)]: the concentration for half-maximal inhibition (IC50) at H2-K^b [2] is 6 nM. For SNFVFAGI [mp68 (547-554, 5F)], the 50% inhibitory concentration (IC50) on H2-K^b [1] (setting [3]) is 0.48 nM; at H2-K^b [1] (binding to MHC Class I molecules with very high affinity (bound), discussion statement, very high affinity) it was below 1 nM.
